# From ChEMBL document CHEMBL1201862, “PubChem BioAssay data set” (2004)
#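 Five concentrations, 48 hours, 96-well plates. GI50 is the concentration that inhibits growth by half.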 Calls of active or inactive are those of the source. Cut-off read from the data, not from the text of the source: active = GI50 up to about 1.1 µM and inactive = higher.
# What was measured:
# Assay in all cases: NCI-60 cell line screen, 48 h
# KM-20L2 = test system: KM-20L2
# HOP-18 = test system: HOP-18
# DMS-114 = test system: DMS-114
# M19-MEL = test system: M19-MEL
# DLD-1 = test system: DLD-1
# DMS-273 = test system: DMS-273
# XF498 = test system: XF498
# RXF 631 = test system: RXF 631
# SNB-78 = test system: SNB-78
SMILES,GI50 (KM-20L2),GI50 (HOP-18),GI50 (DMS-114),GI50 (M19-MEL),GI50 (DLD-1),GI50 (DMS-273),GI50 (XF498),GI50 (RXF 631),GI50 (SNB-78)
CC1=C2C(=CC(C)(C)[C@@H]2O)C(=O)[C@](C)(O)C12CC2 [ILLUDIN M],0.0156 µM (active),0.0313 µM (active),0.0251 µM (active),0.0246 µM (active),0.0138 µM (active),0.01 µM (active),0.01 µM (active),–,–
CNc1nnnn1C1OC(CO)C(O)C1O (centres undefined),> 100 µM (inactive),–,> 100 µM (inactive),> 100 µM (inactive),> 100 µM (inactive),> 100 µM (inactive),14.2 µM (inactive),> 100 µM (inactive),> 100 µM (inactive)
COc1ccccc1-n1c(N)c2c(C)c(-c3ccccc3)[nH]c2nc1=S,18.7 µM (inactive),4.04 µM (inactive),> 100 µM (inactive),> 100 µM (inactive),> 100 µM (inactive),> 100 µM (inactive),> 100 µM (inactive),–,–
O=C1C=CC(=O)c2cc(Sc3ccccc3)c(=O)ccc21,20.2 µM (inactive),17.9 µM (inactive),18.8 µM (inactive),16.6 µM (inactive),13.6 µM (inactive),18.9 µM (inactive),–,21.7 µM (inactive),20 µM (inactive)
C/C(CC(=O)Nc1ccc(Cl)c(Cl)c1)=N/NC(=O)C[N+](C)(C)C,> 100 µM (inactive),> 100 µM (inactive),21.5 µM (inactive),> 100 µM (inactive),29.2 µM (inactive),38.8 µM (inactive),> 100 µM (inactive),–,> 100 µM (inactive)
COc1ccc(OC2(c3cc(OC)ccc3OC)OC(=O)c3ccccc32)cc1 (centres undefined),> 100 µM (inactive),> 100 µM (inactive),> 100 µM (inactive),> 100 µM (inactive),> 100 µM (inactive),> 100 µM (inactive),–,> 100 µM (inactive),> 100 µM (inactive)
COC(=O)C(CCCN1C(=O)c2ccccc2C1=O)C(=O)OC,> 100 µM (inactive),> 100 µM (inactive),> 100 µM (inactive),> 100 µM (inactive),> 100 µM (inactive),> 100 µM (inactive),> 100 µM (inactive),–,> 100 µM (inactive)
CC1=C(C(=O)CC(=O)C(=O)NC2C3CC4CC(C3)CC2C4)Sc2ccccc2N1 (centres undefined),> 100 µM (inactive),86.1 µM (inactive),> 31.6 µM (inactive),> 100 µM (inactive),> 100 µM (inactive),> 100 µM (inactive),> 100 µM (inactive),–,> 100 µM (inactive)
CCN(CC)C(=O)CC12CCCCC1=Nc1ccccc12 (centres undefined),> 100 µM (inactive),> 100 µM (inactive),–,> 100 µM (inactive),> 100 µM (inactive),> 100 µM (inactive),> 100 µM (inactive),> 100 µM (inactive),> 100 µM (inactive)
CCOC(OC1=C(C#N)CCCC1)C(C)[Se]c1ccccc1 (centres undefined),62.7 µM (inactive),38.5 µM (inactive),4.29 µM (inactive),29.2 µM (inactive),36.2 µM (inactive),16.3 µM (inactive),23.6 µM (inactive),–,> 100 µM (inactive)
S=C(N/N=C/c1ccco1)NC12CC3CC(CC(C3)C1)C2,42.8 µM (inactive),> 100 µM (inactive),37.3 µM (inactive),> 100 µM (inactive),> 100 µM (inactive),6.05 µM (inactive),> 100 µM (inactive),–,> 100 µM (inactive)
Cc1ccc(S(=O)(=O)OCC23CCC(CC2)C2CC23)cc1 (centres undefined),56.5 µM (inactive),> 100 µM (inactive),30.5 µM (inactive),43.2 µM (inactive),74.1 µM (inactive),30.1 µM (inactive),–,73.5 µM (inactive),–
COc1ccc(-c2cc(=O)c3c(O)c(O)c(OC)cc3o2)cc1O,> 100 µM (inactive),> 100 µM (inactive),–,> 100 µM (inactive),> 100 µM (inactive),> 100 µM (inactive),> 100 µM (inactive),92 µM (inactive),–
Cc1nc2c(n1Cc1ccc(Cl)cc1)C(=O)c1ccccc1C2=O,8.05 µM (inactive),–,–,11.7 µM (inactive),4.18 µM (inactive),2.62 µM (inactive),36.4 µM (inactive),–,9.42 µM (inactive)
O=[N+]([O-])c1ccc2nc(/C(=N/Nc3ccccc3)C(O)c3ccc(Cl)cc3Cl)c(O)nc2c1 (centres undefined),> 100 µM (inactive),> 100 µM (inactive),8.65 µM (inactive),> 100 µM (inactive),> 100 µM (inactive),39 µM (inactive),> 100 µM (inactive),50.4 µM (inactive),> 100 µM (inactive)
COC(=O)C1C=CCON2CCc3c(n(C)c4ccccc34)C12 (centres undefined),> 100 µM (inactive),–,> 100 µM (inactive),> 100 µM (inactive),> 100 µM (inactive),> 100 µM (inactive),42.1 µM (inactive),> 100 µM (inactive),> 100 µM (inactive)
Cn1c(=O)nc2n(-c3ccc(Cl)cc3)c(-c3ccccc3)c(-c3ccccc3)nc-2c1=O,30.2 µM (inactive),57.9 µM (inactive),28.1 µM (inactive),–,34 µM (inactive),22.6 µM (inactive),12.9 µM (inactive),28.3 µM (inactive),49.2 µM (inactive)
CCc1cccc(C)c1NC(=O)CC1C(=O)Nc2ccccc2[S+]1[O-] (centres undefined),30.5 µM (inactive),–,–,–,47.6 µM (inactive),42.2 µM (inactive),46.5 µM (inactive),–,45.2 µM (inactive)
COC(=O)[C@H]1[C@H]2C[C@@H]3c4[nH]c5cc(OC)ccc5c4CCN3C[C@H]2C[C@@H](OC(=O)c2cc(OC)c(OC)c(OC)c2)[C@@H]1OC [RESERPINE],16.7 µM (inactive),–,15.6 µM (inactive),20.9 µM (inactive),30.5 µM (inactive),20 µM (inactive),–,–,–
O=C1C(c2ccc([N+](=O)[O-])cc2)=[N+]([O-])c2ccccc21,–,< 0.01 µM (active),10.7 µM (inactive),17.2 µM (inactive),33.9 µM (inactive),> 10 µM (inactive),–,–,22.5 µM (inactive)
O=C(O)C1=C(C(=O)Nc2ccc(NC(=O)C3=C(C(=O)O)C4C=CC3C4)cc2)C2C=CC1C2,> 100 µM (inactive),> 100 µM (inactive),> 100 µM (inactive),> 100 µM (inactive),> 100 µM (inactive),> 100 µM (inactive),> 100 µM (inactive),–,> 100 µM (inactive)
COc1cc2c(c(OC)c1OC)C(=O)NCCC2,> 100 µM (inactive),> 100 µM (inactive),> 100 µM (inactive),> 100 µM (inactive),> 100 µM (inactive),> 100 µM (inactive),> 100 µM (inactive),–,> 100 µM (inactive)
Cc1ccc(NC(=O)CC2C(=O)Nc3ccccc3[S+]2[O-])c(C)c1 (centres undefined),12.3 µM (inactive),28.1 µM (inactive),7.94 µM (inactive),13.1 µM (inactive),15.3 µM (inactive),6.15 µM (inactive),10.4 µM (inactive),17.2 µM (inactive),16.4 µM (inactive)
CN(C)CCC(/C=C/c1ccccc1)=N\Nc1ccc(Cl)cc1,1.56 µM (inactive),4.69 µM (inactive),2.4 µM (inactive),6.78 µM (inactive),2.88 µM (inactive),2.11 µM (inactive),–,–,6.07 µM (inactive)
